pIC50: −log10 of the molar value.
System: 439559-082-T-J2-PDC spheroids viability
Assay: Anticancer human tumor 439559-082-T-J2-PDC patient-derived colon adenocarcinoma cell line growth inhibition [GQUAD]
Conditions: for pIC50: curve of first compound; for viability, T/C: stronger effect = lower value; active means viability on the fitted dose curve at most 10% of control; inactive means the rest
Method in brief: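 Viability of tumor cells grown as complex spheroids with endothelial and stromal cells, exposed to drug combinations. Top concentration at or near clinical Cmax (else 10 microM), diluted in half-log increments.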

[1] = second compound 0.0316 µM, first compound 0.0316 µM
[2] = second compound 0.0316 µM, first compound 0.1 µM
[3] = second compound 0.0316 µM, first compound 0.316 µM
[4] = second compound 0.0316 µM, first compound 1 µM
[5] = second compound 0.0316 µM, first compound 3.16 µM
[6] = second compound 0.0316 µM, first compound 10 µM
[7] = second compound 0.1 µM, first compound 0.0316 µM
[8] = second compound 0.1 µM, first compound 0.1 µM
[9] = second compound 0.1 µM, first compound 0.316 µM
[10] = second compound 0.1 µM, first compound 1 µM
[11] = second compound 0.1 µM, first compound 3.16 µM
[12] = second compound 0.1 µM, first compound 10 µM
[13] = second compound 0.316 µM, first compound 0.0316 µM
[14] = second compound 0.316 µM, first compound 0.1 µM
[15] = second compound 0.316 µM, first compound 0.316 µM
[16] = second compound 0.316 µM, first compound 1 µM
[17] = second compound 0.316 µM, first compound 3.16 µM
[18] = second compound 0.316 µM, first compound 10 µM
[19] = second compound 1 µM, first compound 0.0316 µM
[20] = second compound 1 µM, first compound 0.1 µM
[21] = second compound 1 µM, first compound 0.316 µM
[22] = second compound 1 µM, first compound 1 µM
[23] = second compound 1 µM, first compound 3.16 µM
[24] = second compound 1 µM, first compound 10 µM
[25] = second compound 3.16 µM, first compound 0.0316 µM
[26] = second compound 3.16 µM, first compound 0.1 µM
[27] = second compound 3.16 µM, first compound 0.316 µM
[28] = second compound 3.16 µM, first compound 1 µM
[29] = second compound 3.16 µM, first compound 3.16 µM
[30] = second compound 3.16 µM, first compound 10 µM
[31] = second compound 10 µM, first compound 0.0316 µM
[32] = second compound 10 µM, first compound 0.1 µM
[33] = second compound 10 µM, first compound 0.316 µM
[34] = second compound 10 µM, first compound 1 µM
[35] = second compound 10 µM, first compound 3.16 µM
[36] = second compound 10 µM, first compound 10 µM
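Further: spheroids exposed to the agents for 7 days before readout.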
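Wherever viability, T/C is given: percent of luminescence signal in DMSO vehicle wells taken as 100% viability.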

COc1ncnc(C2CC2)c1-c1ncc2cnn(Cc3ccc(-c4nc(C(F)(F)F)cn4C(C)C)cc3)c2n1 + Cc1cnc(CNC(=O)c2c(=O)c3ccc(N4CCCN(C)CC4)nc3n3c2sc2ccccc23)cn1
inactive: viability, T/C [1] 106% | viability, T/C [2] 92% | viability, T/C [3] 93.4% | viability, T/C [4] 105% | viability, T/C [5] 95.5% | viability, T/C [6] 97.5% | viability, T/C [7] 103% | viability, T/C [8] 101% | viability, T/C [9] 87.4% | viability, T/C [10] 95.4% | viability, T/C [11] 97.6% | viability, T/C [12] 96.5% | viability, T/C [13] 86.5% | viability, T/C [14] 85.1% | viability, T/C [15] 89.5% | viability, T/C [16] 79.3% | viability, T/C [17] 93.5% | viability, T/C [18] 77.4% | viability, T/C [19] 74.4% | viability, T/C [20] 78% | viability, T/C [21] 64.9% | viability, T/C [22] 81.8% | viability, T/C [23] 83.7% | viability, T/C [24] 73% | viability, T/C [25] 66.4% | viability, T/C [26] 69.3% | viability, T/C [27] 69.2% | viability, T/C [28] 69.6% | viability, T/C [29] 70% | viability, T/C [30] 69% | viability, T/C [31] 66.8% | viability, T/C [32] 58% | viability, T/C [33] 58.9% | viability, T/C [34] 66.3% | viability, T/C [35] 67% | viability, T/C [36] 63.9%
< 5.00: pIC50 (second compound 0.0316 µM) | pIC50 (second compound 0.1 µM) | pIC50 (second compound 0.316 µM) | pIC50 (second compound 1 µM) | pIC50 (second compound 3.16 µM) | pIC50 (second compound 10 µM)

O=C(NO)c1cnc(N2CCN(S(=O)(=O)c3ccc4ccccc4c3)CC2)nc1 + Cc1cnc(CNC(=O)c2c(=O)c3ccc(N4CCCN(C)CC4)nc3n3c2sc2ccccc23)cn1
6.42: pIC50 (second compound 3.16 µM)
6.45: pIC50 (second compound 1 µM)
active: viability, T/C [5] 0.23% | viability, T/C [6] 0.25% | viability, T/C [11] 0.24% | viability, T/C [12] 0.21% | viability, T/C [17] 0.18% | viability, T/C [18] 0.24% | viability, T/C [23] 0.16% | viability, T/C [24] 0.14% | viability, T/C [28] 8.79% | viability, T/C [29] 0.12% | viability, T/C [30] 0.18% | viability, T/C [34] 0.23% | viability, T/C [35] 0.17% | viability, T/C [36] 0.18%
inactive: viability, T/C [1] 90.2% | viability, T/C [2] 88.9% | viability, T/C [3] 68.9% | viability, T/C [4] 29.1% | viability, T/C [7] 93.5% | viability, T/C [8] 85.8% | viability, T/C [9] 67.2% | viability, T/C [10] 10.9% | viability, T/C [13] 98.1% | viability, T/C [14] 83.4% | viability, T/C [15] 66.7% | viability, T/C [16] 15.7% | viability, T/C [19] 77.9% | viability, T/C [20] 73.2% | viability, T/C [21] 53.9% | viability, T/C [22] 15.3% | viability, T/C [25] 72% | viability, T/C [26] 64.5% | viability, T/C [27] 58.1% | viability, T/C [31] 62.7% | viability, T/C [32] 62.8% | viability, T/C [33] 47.6%
6.26: pIC50 (second compound 0.0316 µM)
6.35: pIC50 (second compound 0.1 µM) | pIC50 (second compound 0.316 µM)
6.58: pIC50 (second compound 10 µM)

Reference: PubChem BioAssay AID2060510 (Molecular Pharmacology Branch, DTP, NCI, 2025)
